Data: ChEMBL document CHEMBL1201862, “PubChem BioAssay data set” (2004)
The source made the active and inactive calls.

How the values were obtained:
HEK293 = test: cells; assay type: functional, cell-based; conditions: Homo sapiens
[1] = target: T1, Nuclear receptor subfamily 0 group B member 1 (Homo sapiens, UniProt P51843); test: Luminescence-based cell-based high throughput dose response assay for inhibitors of the orphan nuclear receptor subfamily 0, group B, member 1 (DAX1; NR0B1). [Related pubchem assays (depositor defined):AID504766, AID504790]; assay type: functional
T1 sequence (P51843 whole entry): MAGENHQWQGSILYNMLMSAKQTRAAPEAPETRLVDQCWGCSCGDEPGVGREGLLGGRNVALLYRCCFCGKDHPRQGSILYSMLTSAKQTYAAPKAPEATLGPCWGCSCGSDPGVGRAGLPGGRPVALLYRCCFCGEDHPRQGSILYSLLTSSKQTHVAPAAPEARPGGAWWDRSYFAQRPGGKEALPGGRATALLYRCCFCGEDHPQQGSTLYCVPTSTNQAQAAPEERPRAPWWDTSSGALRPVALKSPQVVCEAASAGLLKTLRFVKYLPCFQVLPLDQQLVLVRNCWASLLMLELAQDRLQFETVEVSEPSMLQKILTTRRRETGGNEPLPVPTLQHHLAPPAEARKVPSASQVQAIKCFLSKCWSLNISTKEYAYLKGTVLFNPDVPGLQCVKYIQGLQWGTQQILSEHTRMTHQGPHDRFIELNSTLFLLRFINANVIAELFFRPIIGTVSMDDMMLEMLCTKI

[2] = target: T2, Endoribonuclease toxin MazF (Escherichia coli K-12, UniProt P0AE70); test: activation of MazEF endoribonuclease cleavage – biochemical, fluorescence, single-stranded RNA substrate, uHTS hits, dose response (AID 588481); assay type: functional
T2 sequence (P0AE70 whole entry): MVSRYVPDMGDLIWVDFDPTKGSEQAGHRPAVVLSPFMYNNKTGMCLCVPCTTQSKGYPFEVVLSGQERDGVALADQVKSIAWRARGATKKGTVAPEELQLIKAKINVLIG

[3] = target: T2, Endoribonuclease toxin MazF; test: substrate-only fluorescence increase artefacts – biochemical, single-stranded RNase substrate, counter-screen for MazEF activator project, dose response (AID 588502); assay type: functional
[4] = target: T3, Corticotropin-releasing factor receptor 2/Corticotropin-releasing factor-binding protein (Homo sapiens, UniProt P24387+Q13324); test: activators of CRF receptor 2 with binding protein – uHTS hits, confirmation (AID 602473); assay type: functional; conditions: read-out: EC50_Mean
T3 sequence (Q13324 whole entry): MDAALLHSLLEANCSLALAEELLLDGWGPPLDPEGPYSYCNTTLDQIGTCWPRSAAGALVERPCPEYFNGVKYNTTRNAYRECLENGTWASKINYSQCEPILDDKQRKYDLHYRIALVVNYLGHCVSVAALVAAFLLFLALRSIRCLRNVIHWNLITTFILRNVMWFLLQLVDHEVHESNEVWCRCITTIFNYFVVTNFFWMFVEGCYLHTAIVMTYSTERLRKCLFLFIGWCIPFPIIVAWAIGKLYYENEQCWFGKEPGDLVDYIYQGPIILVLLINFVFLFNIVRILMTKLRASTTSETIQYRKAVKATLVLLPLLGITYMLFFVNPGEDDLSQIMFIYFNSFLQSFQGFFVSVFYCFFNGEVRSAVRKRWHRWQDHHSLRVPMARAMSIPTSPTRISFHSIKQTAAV
T3 sequence (P24387 whole entry): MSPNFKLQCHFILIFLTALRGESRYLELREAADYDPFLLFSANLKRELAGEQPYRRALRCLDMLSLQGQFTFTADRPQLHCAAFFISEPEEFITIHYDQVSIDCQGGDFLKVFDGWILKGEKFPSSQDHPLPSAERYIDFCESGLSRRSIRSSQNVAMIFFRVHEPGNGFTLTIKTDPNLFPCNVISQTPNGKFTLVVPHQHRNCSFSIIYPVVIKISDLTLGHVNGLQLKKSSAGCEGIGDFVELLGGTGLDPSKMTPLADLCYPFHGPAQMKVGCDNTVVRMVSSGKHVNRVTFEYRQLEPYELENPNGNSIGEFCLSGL

[5] = target: T4, RNA-binding protein pos-1 (Caenorhabditis elegans, UniProt G5EF15); test: disruptors of C. elegans POS-1 RNA interaction – biochemical, fluorescence polarization, dose response (AID 1964);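 also: purified POS-1 fused to maltose binding protein made in E. coli; potency of compounds blocking POS-1 binding to fluorescent RNA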
T4 sequence (G5EF15 whole entry): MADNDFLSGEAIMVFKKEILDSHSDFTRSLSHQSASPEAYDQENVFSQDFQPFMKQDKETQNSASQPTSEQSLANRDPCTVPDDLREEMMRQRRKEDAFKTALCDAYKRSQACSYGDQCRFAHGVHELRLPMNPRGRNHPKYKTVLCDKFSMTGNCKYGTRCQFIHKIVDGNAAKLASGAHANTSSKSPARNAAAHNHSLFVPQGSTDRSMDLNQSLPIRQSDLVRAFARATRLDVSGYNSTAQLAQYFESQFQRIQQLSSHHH

[6] = target: T5, Zinc finger protein mex-5 (Caenorhabditis elegans, UniProt Q9XUB2); test: potency of MEX-5 RNA-binding blockers – biochemical, C. elegans, fluorescence polarization, dose response (AID 1960)
T5 sequence (Q9XUB2 whole entry): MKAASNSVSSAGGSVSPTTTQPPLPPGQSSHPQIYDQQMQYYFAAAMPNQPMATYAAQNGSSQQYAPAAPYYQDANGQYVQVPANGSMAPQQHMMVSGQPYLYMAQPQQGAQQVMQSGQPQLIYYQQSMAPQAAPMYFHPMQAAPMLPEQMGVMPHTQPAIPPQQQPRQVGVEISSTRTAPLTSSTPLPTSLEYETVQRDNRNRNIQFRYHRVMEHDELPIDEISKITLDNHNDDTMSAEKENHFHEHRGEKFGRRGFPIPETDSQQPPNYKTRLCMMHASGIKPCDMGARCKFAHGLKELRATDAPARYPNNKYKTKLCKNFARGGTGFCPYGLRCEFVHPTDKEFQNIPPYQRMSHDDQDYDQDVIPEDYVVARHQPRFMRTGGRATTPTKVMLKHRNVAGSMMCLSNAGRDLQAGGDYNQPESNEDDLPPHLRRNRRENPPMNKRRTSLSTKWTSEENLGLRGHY

HeLa = test: viability loss in HeLa cells – cell-based, 24 h, cherry-picked samples, cytotoxicity control, dose response (AID 504726); assay type: functional; conditions: Homo sapiens;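 also: potency for cytotoxicity as loss of luminescence signal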
[7] = Luminescence Cell-Based Dose Confirmation HTS to Identify Activators of 5'UTR Stem-Loop Driven Alpha-Synuclein mRNA Translation in H4 Neuroglioblastoma Cells. [Related pubchem assays: 1829 (Project Summary), 1814 (Primary HTS)]; assay type: functional
[8] = Luminescence Cell-Based Dose Response HTS to Identify Activators of Luciferase Translation or Activity in H4 […] Cells. [Related pubchem assays: 1829 (Project Summary), 1814 (Primary HTS)]; assay type: functional
cells [9] = assay type: functional, cell-based
H4 = test: Luminescence Cell-Based Dose Response HTS to Identify Activators of 5'UTR Stem-Loop Driven Prion Protein mRNA Translation in H4 Neuroglioblastoma Cells. [Related pubchem assays: 1829 (Project Summary), 1814 (Primary HTS)]; assay type: functional; conditions: Homo sapiens
cells [10] = assay type: functional, cell-based; remark: listed apart in the source
[11] = Luminescence Cell-Based Dose Retest to Confirm Inhibitors of Cancer Stem Cells. [Related pubchem assays (depositor defined):AID2717, AID2721]; assay type: functional; conditions: Homo sapiens
Jurkat = test: blockers of NF-kB activation in T cells – Jurkat, luciferase reporter, luminescence, B- and T-cell, dose response (AID 489004); assay type: functional, cell-based; conditions: Homo sapiens;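 also: NF-kB luciferase reporter Jurkat cells stimulated with PMA plus ionomycin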
[12] = HEK-293T viability loss, compound-treated – cell-based, uHTS hits, cytotoxicity control for B/T-cell NF-kB inhibitor project, dose response (AID 489019); assay type: functional;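 also: IC50 reflects cytotoxicity as loss of cell viability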
[13] = blockers of HIV-1 envelope-mediated cell-cell fusion – cherry-pick, dose response (AID 652057); assay type: functional, cell-based
[14] = viability loss in CEM21 cells – cell-based, CellTiter-Glo luminescence, cherry-picked, cytotoxicity control for viral fusion inhibitor project, dose response (AID 652042); assay type: functional;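 also: potency for signal decrease meaning cytotoxicity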
[15] = blockers of HIV-1 ZM109 envelope-driven cell-cell fusion – HeLa effector, CEM target cells, luciferase, cherry-pick, dose response (AID 652058); assay type: functional, cell-based;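 also: luciferase signal from HIV-1 Env mediated cell-cell fusion of effector and target cells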
Paired box protein Pax-8 = Paired box protein Pax-8 (Homo sapiens, UniProt Q06710); test: PAX8 transcriptional activity inhibition in RMG-I – RMG-I cells, luciferase, cherry-pick, dose response (AID 687027); assay type: functional, cell-based;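 also: luciferase reporter driven by Pax8 target thyroperoxidase promoter measured by SteadyGlo luminescence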
Paired box protein Pax-8, sequence (Q06710 whole entry, the tested form may be a part): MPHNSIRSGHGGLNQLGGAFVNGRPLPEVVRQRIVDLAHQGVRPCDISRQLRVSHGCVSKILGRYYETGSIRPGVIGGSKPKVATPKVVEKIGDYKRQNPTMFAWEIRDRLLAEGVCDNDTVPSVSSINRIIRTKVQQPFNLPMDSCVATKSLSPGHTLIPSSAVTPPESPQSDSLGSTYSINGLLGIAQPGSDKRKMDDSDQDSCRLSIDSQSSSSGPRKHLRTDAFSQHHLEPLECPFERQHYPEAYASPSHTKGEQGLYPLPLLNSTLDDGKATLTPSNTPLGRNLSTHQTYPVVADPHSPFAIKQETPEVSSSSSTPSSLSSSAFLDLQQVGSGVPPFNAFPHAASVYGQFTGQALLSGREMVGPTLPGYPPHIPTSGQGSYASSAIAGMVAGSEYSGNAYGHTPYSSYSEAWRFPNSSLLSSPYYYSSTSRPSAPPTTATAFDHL

[16] = off-target signal loss in HeLa-CEM21 co-culture – HeLa F-luc CTL cells, cherry-picked, counter-screen for HIV-1 Env fusion inhibitor project, dose response (AID 652040); assay type: functional, cell-based;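 also: potency for signal decrease marking cytotoxic or nonspecific inhibition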
[17] = HIV-1 AD8 envelope cell-cell fusion blockers – cherry-pick, dose response (AID 652062); assay type: functional, cell-based;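 also: luciferase signal from cell-cell fusion driven by HIV-1 clade B AD8 Env; potency is for inhibitors of fusion seen as a drop in luminescence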
[18] = target: Beta-2 adrenergic receptor (Homo sapiens, UniProt P07550); test: ADRB2 activation measured by internalization – cell-based, FAP fluorogen, flow cytometry, cherry pick 1, dose response (AID 588763); assay type: functional
Beta-2 adrenergic receptor, sequence (P07550 whole entry): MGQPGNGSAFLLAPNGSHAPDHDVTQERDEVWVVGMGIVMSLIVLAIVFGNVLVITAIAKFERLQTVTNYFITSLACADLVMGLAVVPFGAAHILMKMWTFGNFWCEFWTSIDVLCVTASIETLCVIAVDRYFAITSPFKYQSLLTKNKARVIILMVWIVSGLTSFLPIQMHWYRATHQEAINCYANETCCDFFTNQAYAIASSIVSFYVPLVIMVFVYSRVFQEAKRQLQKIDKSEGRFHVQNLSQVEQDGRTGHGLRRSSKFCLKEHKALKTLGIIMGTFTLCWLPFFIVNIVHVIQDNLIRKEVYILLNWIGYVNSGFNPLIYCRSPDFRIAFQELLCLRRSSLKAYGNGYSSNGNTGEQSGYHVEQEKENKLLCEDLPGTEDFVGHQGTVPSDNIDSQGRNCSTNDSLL

[19] = target: T6, Ubiquitin-conjugating enzyme E2 N (Homo sapiens, UniProt P61088); assay type: functional;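 also: Dose-response confirmation in a TR-FRET assay detecting UBC13-driven polyubiquitin chain formation, inhibition measured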
T6 sequence (P61088 whole entry): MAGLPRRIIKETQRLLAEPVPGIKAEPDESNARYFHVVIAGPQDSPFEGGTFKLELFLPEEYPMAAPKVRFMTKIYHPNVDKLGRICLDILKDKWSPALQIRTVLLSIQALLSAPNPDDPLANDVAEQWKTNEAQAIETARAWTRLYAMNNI

[20] = target: T7, Microphthalmia-associated transcription factor (Homo sapiens, UniProt O75030); test: reducers of TRPM1 reporter luminescence, concentration series – cell-based, SK-MEL-5, cherry-picked, set 3, MITF inhibitor project, dose response (AID 493073); assay type: functional;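 also: SK-MEL-5 melanoma cells with luciferase driven by the MITF target TRPM1 promoter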
T7 sequence (O75030 whole entry): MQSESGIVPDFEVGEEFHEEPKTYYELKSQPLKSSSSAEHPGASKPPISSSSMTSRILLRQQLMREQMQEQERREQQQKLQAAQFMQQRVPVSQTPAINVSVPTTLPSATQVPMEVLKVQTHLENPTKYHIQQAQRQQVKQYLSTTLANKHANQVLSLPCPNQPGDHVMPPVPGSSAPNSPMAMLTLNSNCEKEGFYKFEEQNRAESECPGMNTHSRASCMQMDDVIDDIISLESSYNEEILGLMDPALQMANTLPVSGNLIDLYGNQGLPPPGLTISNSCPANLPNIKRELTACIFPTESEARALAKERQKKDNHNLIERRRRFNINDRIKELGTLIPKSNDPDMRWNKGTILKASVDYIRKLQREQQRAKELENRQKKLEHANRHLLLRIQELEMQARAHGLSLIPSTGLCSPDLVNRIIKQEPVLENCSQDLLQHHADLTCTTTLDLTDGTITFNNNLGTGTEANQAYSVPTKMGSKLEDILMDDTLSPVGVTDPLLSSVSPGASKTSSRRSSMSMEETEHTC

A-375 = test: proliferation inhibition in MITF-low A375 cells – cell-based, cherry-pick samples, set 2, counter-screen for MITF modulator project, dose response (AID 540335); assay type: functional; conditions: Homo sapiens
[21] = target: T8, DNA repair protein RAD52 homolog (Homo sapiens, UniProt P43351); assay type: functional, biochemical
T8 sequence (P43351 whole entry): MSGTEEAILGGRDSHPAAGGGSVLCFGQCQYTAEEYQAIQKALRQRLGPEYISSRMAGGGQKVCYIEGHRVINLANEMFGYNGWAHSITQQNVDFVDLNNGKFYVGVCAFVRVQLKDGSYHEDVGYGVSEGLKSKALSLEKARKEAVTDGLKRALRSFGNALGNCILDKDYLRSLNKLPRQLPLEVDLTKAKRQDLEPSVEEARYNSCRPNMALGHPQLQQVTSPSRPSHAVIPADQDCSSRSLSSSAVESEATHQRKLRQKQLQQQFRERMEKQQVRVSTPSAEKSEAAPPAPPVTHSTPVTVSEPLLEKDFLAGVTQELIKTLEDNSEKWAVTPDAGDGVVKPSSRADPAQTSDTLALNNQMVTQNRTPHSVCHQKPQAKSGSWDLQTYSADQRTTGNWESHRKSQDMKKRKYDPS

In the case of `CN(C)S(=O)(=O)c1cc(NC2CC(=O)N(c3ccc(F)cc3)C2=O)ccc1Cl` (stereo not drawn), the IC50 (HEK293) is reported as > 67.5 µM (inactive) and the IC50 [1] is reported as > 67.5 µM (inactive).

For `CSc1nc(-c2ccc(N(C)C)cc2)c(C#N)c(=O)n1C`, the EC50 [2] was > 99 µM (inactive), the EC50 [3] was > 99 µM (inactive) and the EC50 [4] was 7.08 µM (active).

For `Cc1ccc(N=Nc2c(O)[nH]c3ccc(F)cc23)cc1`, the EC50 [5] was > 300 µM (inconclusive), the EC50 [6] was > 300 µM (inconclusive) and the AC50 (HeLa) was 251 µM (active). The EC50 [2] was > 99 µM (inactive) and the EC50 [3] was 29.9 µM (inactive).

For `COc1ccc(C(=O)NC2=Nc3ccccc3N=C(C)C2c2ccccc2)cc1` (stereo not drawn), the EC50 [7] was 9.66 µM (active), the EC50 [8] was 40.7 µM (active) and the EC50 (cells [9]) was 34.7 µM (active). The EC50 (H4) was 18.9 µM (active), the EC50 (cells [10]) was 78.6 µM (active) and the IC50 (HEK293) was 3.47 µM (active). For the same compound, the IC50 [1] was > 67.5 µM (inactive).

In the case of `C[C@@H]1O[C@@H](O[C@@H]2C=C3CC[C@@H]4C(CC[C@]5(C)[C@@H](c6ccc(=O)oc6)CC[C@]45O)[C@@]3(C)CC2)[C@H](O)[C@H](O)[C@H]1O` (stereo partly drawn), the AC50 [11] is reported as < 0.16 µM (active), the IC50 (Jurkat) is reported as 0.33 µM (active) and the IC50 [12] is reported as > 80 µM (inactive). The AC50 [13] was 0.799 µM (active), the AC50 [14] was 0.613 µM (active) and the AC50 [15] was 0.319 µM (active). For the same compound, the AC50 (Paired box protein Pax-8) was < 0.26 µM (active), the AC50 [16] was < 0.26 µM (active) and the AC50 [17] was 0.54 µM (active).

In the case of `O=C1C2CCCCN2C(=O)N1CCCCN1CCN(c2cccc(C(F)(F)F)c2)CC1` (stereo not drawn), the EC50 [18] is reported as 2.52 µM (active).

For `Cc1c(CCOC(=O)c2ccc(Cl)cc2Cl)sc[n+]1CC(=O)c1ccc(Br)cc1`, the IC50 [19] was > 20 µM (inactive), the AC50 [20] was 19.8 µM (active) and the AC50 (A-375) was 23.5 µM (active). For the same compound, the AC50 [21] was 13 µM (active).

In the case of `O=C(Nc1ccc2oc(-c3ccccc3)nc2c1)c1cc(-n2cnnc2)ccc1Cl`, the EC50 [2] is reported as > 99 µM (inactive) and the EC50 [3] is reported as > 99 µM (inactive).
